Measurements published in US20230181556A1, “USE OF PSYCHOTROPIC DRUGS FOR THE TREATMENT OF CORONAVIRUS INFECTIONS” (priority 2020, published 2023).
“Also recorded” adds a separate entry of the source.

Legend:
[1] = system: Vero-E6 cells; assay: cytotoxicity in mock infected cells; assay type: cell-based; settings: same experiment (10 μM, 5 μM and 2 μM)
Experimental: One day prior to the assay, Vero-E6 cells (ATCC® CRL-1586) were plated in a 96-wells flat bottom tissue culture treated plate at a density of 2×10^4 cells/well. On the day of the assay, Vero-E6 cells were pre-treated with the different concentration (i.e. 10 μM, 5 μM and 2 μM) of the indicated drugs diluted in Dulbecco's Modified Eagles Medium (DMEM). After 1 h, the cells were infected with 50 μl of a viral inoculum at 1×10^3 TCID50/ml and incubated for 2 h at 37° C. to allow infection. Then, the virus-drug mixture was removed, cells were rinsed 3 times with PBS and were further cultured with fresh drug-containing medium (DMEM 5% FBS) for 3 days until microscopic examination was performed. Cytotoxicity of the tested drugs were determined in the same experiment in mock infected cells. The half maximal inhibitory concentration (IC50) were analyzed by non-linear regression using a four-parameter dosage-response variable slope model with the GraphPad Prism 8.0.2 software (GraphPad Software, USA).

[2] = system: viruses as listed per drug; settings: virus or effect named in the literature; cited from earlier work
[3] = system: phospholipidosis; settings: cited from earlier work
[4] = under 20 μM concentrations; Hou et al.; cited from earlier work
[5] = target: spike protein-ACE2 interaction (Homo sapiens, UniProt Q9BYF1); settings: Hou et al., Chemico-Biological Interactions 338 (2021) 109420; cited from earlier work
spike protein-ACE2 interaction, sequence (Q9BYF1 18-805): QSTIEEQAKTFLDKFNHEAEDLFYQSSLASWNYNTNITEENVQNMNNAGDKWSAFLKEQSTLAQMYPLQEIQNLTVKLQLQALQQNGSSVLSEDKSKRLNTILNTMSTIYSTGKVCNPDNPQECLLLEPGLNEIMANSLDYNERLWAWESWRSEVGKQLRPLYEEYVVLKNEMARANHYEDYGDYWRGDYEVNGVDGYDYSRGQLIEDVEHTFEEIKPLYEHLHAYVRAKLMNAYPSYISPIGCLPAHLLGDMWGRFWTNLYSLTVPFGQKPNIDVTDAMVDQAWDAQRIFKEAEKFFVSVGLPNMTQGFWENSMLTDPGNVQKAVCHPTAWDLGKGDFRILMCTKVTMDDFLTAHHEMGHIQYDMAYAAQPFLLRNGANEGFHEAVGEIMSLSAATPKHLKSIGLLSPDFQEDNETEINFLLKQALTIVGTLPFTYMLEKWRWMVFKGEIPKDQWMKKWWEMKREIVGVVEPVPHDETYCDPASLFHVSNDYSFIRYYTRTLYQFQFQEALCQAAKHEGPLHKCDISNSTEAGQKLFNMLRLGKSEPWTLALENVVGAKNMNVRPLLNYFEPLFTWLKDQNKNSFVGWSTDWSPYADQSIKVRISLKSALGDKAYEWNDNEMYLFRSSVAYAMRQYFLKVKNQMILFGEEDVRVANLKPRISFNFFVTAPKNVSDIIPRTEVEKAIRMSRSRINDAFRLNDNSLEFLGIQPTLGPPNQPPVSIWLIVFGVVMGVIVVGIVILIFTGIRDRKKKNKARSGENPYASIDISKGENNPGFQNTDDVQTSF

Row | Compound | Examples of published in vitro antiviral activity [2] | also measured
1 | CN1CCCC(n2nc(Cc3ccc(Cl)cc3)c3ccccc3c2=O)CC1 (stereo not drawn) [Azelastine] | – | Cytotoxicity [1]: not found to be cytotoxic
2 | O=C(O)COCCN1CCN(C(c2ccccc2)c2ccc(Cl)cc2)CC1 (stereo not drawn) [Cetirizine] | HRV (Antiviral | –
3 | CCN(CC)CCCC(C)Nc1ccnc2cc(Cl)ccc12 (stereo not drawn) [Chloroquine] | MERS, SARS,; also recorded: Filovirus | PLD, known [3]: PLD compound
4 | CN(C)CCOC(C)(c1ccccc1)c1ccc(Cl)cc1 (stereo not drawn) [Chlorphenoxamine] | MERS, SARS | –
5 | CN(C)CCCN1c2ccccc2Sc2ccc(Cl)cc21 [Chlorpromazine] | MERS, SARS | PLD, known [3]: PLD agent
6 | CCN(CC)CCOc1ccc(C(=C(Cl)c2ccccc2)c2ccccc2)cc1 [Clomifene] | Ebola, HCV | –
7 | CN(C)CCCN1c2ccccc2CCc2ccc(Cl)cc21 [Clomipramine] | MERS, SARS | –
8 | Clc1ccc(C(OCCN2CCCCC2)c2ccccc2)cc1 (stereo not drawn) [Cloperastine] | SARS-CoV-2 | –
9 | Clc1ccc2c(c1)CCc1cccnc1C2=C1CCNCC1 [Desloratadine] | – | Cytotoxicity [1]: not found to be cytotoxic; Cytotoxicity [4]: No cytotoxicity was observed
10 | O=C(CCCN1CCC(O)(c2ccc(Cl)cc2)CC1)c1ccc(F)cc1 [Haloperidol] | SARS-CoV-2 | –
11 | CCN(CCO)CCCC(C)Nc1ccnc2cc(Cl)ccc12 (stereo not drawn) [Hydroxyl-chloroquine] | SARS-Cov-2 | –
12 | CCOC(=O)N1CCC(=C2c3ccc(Cl)cc3CCc3cccnc32)CC1 [Loratadine] | – | block of spike protein-ACE2 interaction [5]: efficient to block spike protein-ACE2 interaction; Cytotoxicity [4]: No cytotoxicity was observed
13 | COc1ccc2[nH]cc(CCNC(C)=O)c2c1 [Melatonin] | Possible roles | –
14 | CC(CN1c2ccccc2Sc2ccccc21)N(C)C (stereo not drawn) [Promethazine] | Ebola (Sci Transl Med | Cytotoxicity [1]: not found to be cytotoxic
15 | CN[C@H]1CC[C@@H](c2ccc(Cl)c(Cl)c2)c2ccccc21 [Sertraline] | Ebola virus; also recorded: Zika Virus; also recorded: HIV in vivo | PLD, known [3]: PLD compound
